Earlier results in paper PMC9697394, “Recent Synthesis, Characterization, and Pharmacological Evaluation of Multifunctional Hemorphins Containing Non-Natural Amino Acids with Potential Biological Importance” (Pharmaceuticals, 2022).
Where two headings read alike, the source gives them in different places. Where no end group is shown, it is not given here. [ ]: non-standard residue; d: D form. Ac6c = NC1(C(=O)O)CCCCC1; Ac5c = NC1(C(=O)O)CCCC1; Dab = NCC[C@H](N)C(=O)O; Dap = NC[C@H](N)C(=O)O

Experiments:
[1] = tested on: mice; conditions: MES test in mice
[2] = tested on: mice; conditions: rotarod
[3] = tested on: mice; conditions: 6 Hz test in mice, TPE 10 min
From the text: Modifications have been made by replacing Pro at position 2 with the unnatural and conformationally restricted amino acids Ac5c and Ac6c, as well as introducing the adamantane residue from the N-terminus of the hemorphin-4 molecule that would lead to multiple target systems.

[4] = by potentiometric titration
From the text: Table 6 Parameters of the voltammetric measurements and the electrochemical data of peptides. | column: pKa1; pKa2 Constants

[5] = TPE 10 min, LVV- and VV-hemorphin-7 analogs
[6] = Table 2 (MES), LVV- and VV-hemorphin-7 analogs, unit inferred
[7] = VV-hemorphin-7 analogs containing unnatural amino acids

Molecule | pKa1 [4] | pKa2 [4] | pKa (Tyr) [4] | pKa (Val) [4] | other results
O=C1NC(=O)C(c2ccccc2)(c2ccccc2)N1 [Phenytoin, 5,5′-diphenylhydantoin, reference compound] |  |  |  |  | ED50 (median effective dose) ([1]; TPE 60 min, reference drug, ref not given): 4.92 mg/kg; TD50 (median minimal neurotoxic dose) ([2]; TPE 60 min, Table 2, ref not given): >100 mg/kg
Aaa-Tyr-Pro-Trp-Thr-NH2 [P4-3] | 3.88 | 6.93 |  |  | ED50 (median effective dose) ([3]; hemorphin-4 analogs): 0.83 µg; ED50 (median effective dose) ([1]; TPE 10 min, hemorphin-4 analogs): 1.66 µg; TD50 (median minimal neurotoxic dose) ([2]; Table 2 (MES), TPE 10 min, hemorphin-4 analogs, unit inferred): > 10 mg/kg
D-Leu-Val-Val-Tyr-Pro-Trp-Thr-Gln-Arg-D-Phe-NH2 [H7-3] | 3.05 | 6.78 |  |  | ED50 (median effective dose) [1, 5]: 0.68 µg; TD50 (median minimal neurotoxic dose) [2, 6]: > 8 mg/kg
DGRVVYPWTQRFRGD-NH2 [RGD2] | 3.48 | 6.34 |  |  | 
IVVYPWTQ-NH2 [V6] |  |  |  |  | ED50 (median effective dose) ([3]; VV-hemorphin-5 analogs): 5.55 µg; ED50 (median effective dose) ([1]; TPE 10 min, VV-hemorphin-5 analogs): 16.77 µg; TD50 (median minimal neurotoxic dose) ([2]; Table 2 (MES), VV-hemorphin-5 analogs, unit inferred): > 20 mg/kg; pKa constant (one value given) [4]: 8.01, [48, 49]
IVVYPWTQR[dF]-NH2 [H7-1] | 2.98 | 6.12 |  |  | ED50 (median effective dose) ([3]; LVV- and VV-hemorphin-7 analogs): 0.33 µg
VVYPWTQRFRGD-NH2 [RGD1] | 3.53 | 6.42 |  |  | 
VVYPWT[Dab]-NH2 [V3] |  |  |  |  | pKa constant (one value given) [4]: 8.12, [48, 49]
VVYPWT[Dab]RF-NH2 [VV-H-5] |  |  | 5.98 | 8.08 | ED50 (median effective dose) [3, 7]: 0.89 µg; pKa (Dap, Dab) [4]: 7.21
VVYPWT[Dap]-NH2 [V2] |  |  |  |  | ED50 (median effective dose) ([3]; VV-hemorphin-5 analogs): 9.97 µg; pKa constant (one value given) [4]: 9.23, [48, 49]
VVY[Ac5c]WTQRF-NH2 [VV-H-2] |  |  | 5.34 | 8.04 | ED50 (median effective dose) [3, 7]: 5.69 µg
VVY[Ac5c]WT[Dab]RF-NH2 [VV-H-7] |  |  | 4.70 | 8.21 | ED50 (median effective dose) [3, 7]: 0.89 µg; pKa (Dap, Dab) [4]: 7.26
VVY[Ac5c]WT[Dap]RF-NH2 [VV-H-6] |  |  | 4.72 | 8.15 | pKa (Dap, Dab) [4]: 6.87
VVY[Ac6c]WTQRF-NH2 [VV-H-3] |  |  | 4.83 | 7.49 | ED50 (median effective dose) [3, 7]: 5.69 µg
VVY[Ac6c]WT[Dab]RF-NH2 [VV-H-9] |  |  | 4.66 | 9.08 | ED50 (median effective dose) [3, 7]: 1.09 µg; pKa (Dap, Dab) [4]: 8.80
VVY[Ac6c]WT[Dap]RF-NH2 [VV-H-8] |  |  | 5.27 | 9.20 | ED50 (median effective dose) [3, 7]: 1.01 µg; pKa (Dap, Dab) [4]: 8.03
Y[Ac5c]WT-NH2 [P4-1] | 3.89 | 6.52 |  |  | ED50 (median effective dose) ([3]; hemorphin-4 analogs): 0.52 µg
[dV]VYPWTQR[dF]-NH2 [H7-4] | 3.22 | 6.52 |  |  | ED50 (median effective dose) [1, 5]: 2.54 µg; TD50 (median minimal neurotoxic dose) [2, 6]: > 15 mg/kg
rhodamineB-Gly-Tyr-Pro-Trp-Thr-NH2 [Rh-1] | 2.81 | 6.60 |  |  | 
rhodamineB-β-Ala-Tyr-Pro-Trp- Thr-NH2 [Rh-2] | 2.78 | 6.38 |  |  | 
rhodamineB-γ-Abu-Tyr-Pro-Trp-Thr-NH2 [Rh-3] | 2.86 | 6.39 |  |  | 
